A short description of data set [1]: Therapeutic index, ratio of EC50 for BALB/c mouse peritoneal macrophages to EC50 for Leishmania donovani MHOM/IN/AG/83 amastigotes. Format: toxicity. As to conditions: read-out: Ratio EC50.
Data set [2] relates to Peritoneal macrophage. The experiment in a line: Cytotoxicity against BALB/c mouse peritoneal macrophages after 48 hrs by MTT assay. Format: cell-based. (In general: Tetrazolium assays rely on reduction of a dye to a coloured formazan, in cell work by metabolically active cells.)
Data set [3] relates to Leishmania donovani. The experiment in a line: Antileishmanial activity against Leishmania donovani MHOM/IN/AG/83 promastigotes after 48 hrs by MTT assay. Format: functional, organism-based. As to conditions: MHOM/IN/AG/83, 48 h.
For data set [4], the system named is Leishmania donovani. Nature of the data set: Antileishmanial activity against Leishmania donovani MHOM/IN/AG/83 amastigotes infected in BALB/c mouse peritoneal macrophages after 42 hrs by Giemsa staining-based microscopic analysis. Format: functional, organism-based. As to conditions: MHOM/IN/AG/83, 42 h.
Data set [5] relates to Peritoneal macrophage. The experiment in a line: Induction of NO generation in Leishmania donovani MHOM/IN/AG/83 infected BALB/c mouse peritoneal macrophages assessed as nitrite levels after 48 hrs by Griess assay relative to untreated control. In kind it is functional. A general note: Griess reagent forms a coloured azo dye with nitrite.
The nature of data set [6]: Therapeutic index, ratio of IC50 for mouse RAW264.7 cells to IC50 for Leishmania donovani MHOM/IN/AG/83 promastigotes. Format: toxicity. As to conditions: read-out: Ratio IC50.
Data set [7] deals with RAW264.7. Nature of the data set: Cytotoxicity against mouse RAW264.7 cells after 48 hrs by MTT assay. Format: cell-based. As to conditions: RAW264.7, 48 h.

Structures are written as SMILES.

For orientation: EC50 means the midpoint of the concentration-response curve. Read a high EC50 as a need for much substance. For orientation: IC50 means the concentration at which inhibition is half-maximal. Take `C=CCc1ccc(OC(=O)CCCC)c(OC)c1`: the selectivity ratio in data set [1] amounted to 5.41; in data set [6], 3.49. Further, the EC50 amounted to 353 µM in data set [2] and 65.6 µM in data set [4]. Besides, the IC50 is 106 µM in data set [3] and 368 µM in data set [7]. Also, the Activity result in data set [5] is “Dose-dependent effect”; in data set [5] (record 2) it was 24.39 µM.
With `C=CCc1ccc(OC(=O)CCCCC)c(OC)c1`, the selectivity ratio in data set [1] came to 4.76; in data set [6] it was 3.21. For the same compound, the EC50 was 477 µM in data set [2] and 101 µM in data set [4]. Besides, the IC50 in data set [3] is 162 µM; in data set [7], 517 µM. The results for the Activity entry in data set [5] and in data set [5] (record 2) were “Dose-dependent effect” and 18.29 µM, respectively.
In the case of `C=CCc1ccc(OCCCC)c(OC)c1` [N-BUTYLEUGENOL], the selectivity ratio in data set [1] came out at 2.35; in data set [6] it was 1.07. For the same compound, the figures for the EC50 in data set [2] and in data set [4] were 345 µM and 147 µM, respectively. The concentration for half-maximal inhibition (IC50) is 309 µM in data set [3] and 329 µM in data set [7]. In addition, the Activity entry in data set [5] was “Dose-dependent effect”; in data set [5] (record 2), 14.23 µM.
In the case of `C=CCc1ccc(OCCCCCCC)c(OC)c1`, the selectivity ratio was determined as 4.88 in data set [1] and 3.28 in data set [6]. Besides, the concentration giving a half-maximal response (EC50) stood at 197 µM in data set [2] and 41.1 µM in data set [4]. The results for the IC50 in data set [3] and in data set [7] were 61.3 µM and 198 µM, respectively. Also, the Activity entry in data set [5] is “Dose-dependent effect”; in data set [5] (record 2), 22.43 µM.
Regarding `C=CCc1ccc(OC(=O)CCCCCCCCCCCCCCC)c(OC)c1`, the selectivity ratio in data set [1] is 42.2; in data set [6], 8.56. Also, the EC50 turned out to be 357 µM in data set [2] and 8.54 µM in data set [4]. The IC50 was 43.3 µM in data set [3] and 374 µM in data set [7]. In addition, the Activity result was “Dose-dependent effect” in data set [5] and 39.42 µM in data set [5] (record 2).
Take `C=CCc1ccc(OC(=O)Cc2ccccc2)c(OC)c1`: the selectivity ratio in data set [1] amounted to 41.8; in data set [6] it was 11.8. The results for the EC50 in data set [2] and in data set [4] were 385 µM and 9.28 µM, respectively. Also, the values for the IC50 in data set [3] and in data set [7] were 33.4 µM and 391 µM, respectively. Besides, the Activity result in data set [5] was “Dose-dependent effect”; in data set [5] (record 2) it was 36.45 µM.
`C=CCc1ccc(OC(=O)c2ccccc2Cl)c(OC)c1`: the selectivity ratio in data set [1] worked out at 4.79; in data set [6], 3.91. Also, the EC50 in data set [2] was determined as 275 µM; in data set [4] it was 57.9 µM. In addition, the IC50 is 64.5 µM in data set [3] and 251 µM in data set [7]. Moreover, the Activity entry in data set [5] was “Dose-dependent effect”; in data set [5] (record 2) it was 14.58 µM.
`C=CCc1ccc(OC(=O)CCCCCCCC)c(OC)c1`: the results for the selectivity ratio in data set [1] and in data set [6] were 6.52 and 3.37, respectively. Further, the EC50 in data set [2] came out at 343 µM; in data set [4], 52.9 µM. Besides, the figures for the IC50 in data set [3] and in data set [7] were 93.6 µM and 317 µM, respectively. Moreover, the results for the Activity entry in data set [5] and in data set [5] (record 2) were “Dose-dependent effect” and 27.14 µM, respectively.
Turning to `C=CCc1ccc(OCCCCCCCCC)c(OC)c1`, the selectivity ratio in data set [1] stood at 6.47; in data set [6] it was 4.27. The EC50 in data set [2] worked out at 326 µM; in data set [4], 51.8 µM. The results for the IC50 in data set [3] and in data set [7] were 81.9 µM and 332 µM, respectively. Further, the results for the Activity result in data set [5] and in data set [5] (record 2) were “Dose-dependent effect” and 25.19 µM, respectively.
As for `C=CCc1ccc(OC(=O)CCCCCC)c(OC)c1`, the values for the selectivity ratio in data set [1] and in data set [6] were 8.3 and 4.95, respectively. Besides, the EC50 in data set [2] stood at 491 µM; in data set [4], 59.6 µM. Besides, the IC50 worked out at 103 µM in data set [3] and 512 µM in data set [7]. Besides, the values for the Activity result in data set [5] and in data set [5] (record 2) were “Dose-dependent effect” and 25.84 µM, respectively.
Consider `C=CCc1ccc(OC(=O)CCCCCCCCC)c(OC)c1`, for which the figures for the selectivity ratio in data set [1] and in data set [6] were 12.4 and 5.66, respectively. Also, the EC50 came to 404 µM in data set [2] and 33.1 µM in data set [4]. The IC50 in data set [3] came out at 67.5 µM; in data set [7], 373 µM. Also, the results for the Activity result in data set [5] and in data set [5] (record 2) were “Dose-dependent effect” and 27.31 µM, respectively.
`C[C@@H]1[C@H](O)[C@@H](C)/C=C/C=C/C=C/C=C/C=C/C=C/C=C/[C@H](O[C@@H]2O[C@H](C)[C@@H](O)[C@H](N)[C@@H]2O)C[C@@H]2O[C@](O)(C[C@@H](O)C[C@@H](O)[C@H](O)CC[C@@H](O)C[C@@H](O)CC(=O)O[C@H]1C)C[C@H](O)[C@H]2C(=O)O` [AMPHOTERICIN B]: the selectivity ratio in data set [1] turned out to be 7.78; in data set [6], 7.4. The figures for the EC50 in data set [2] and in data set [4] were 9.18 µM and 1.18 µM, respectively. Further, the values for the IC50 in data set [3] and in data set [7] were 1.36 µM and 10 µM, respectively. For the same compound, in data set [5], the Activity entry was “Dose-dependent effect”.
Regarding `C=CCc1ccc(OC(=O)CC)c(OC)c1`, the selectivity ratio in data set [1] turned out to be 3.86; in data set [6], 3.1. In addition, the EC50 in data set [2] was found to be 429 µM; in data set [4] it was 112 µM. The figures for the IC50 in data set [3] and in data set [7] were 146 µM and 448 µM, respectively. For the same compound, the Activity result in data set [5] is “Dose-dependent effect”; in data set [5] (record 2) it was 12.19 µM.
As for `C=CCc1ccc(OC(=O)c2c[nH]c3ccccc23)c(OC)c1`, the values for the selectivity ratio in data set [1] and in data set [6] were 19.7 and 8.11, respectively. Besides, the EC50 is 496 µM in data set [2] and 25.3 µM in data set [4]. In addition, the IC50 in data set [3] was 60.5 µM; in data set [7] it was 485 µM. The Activity entry in data set [5] is “Dose-dependent effect”; in data set [5] (record 2), 26.24 µM.
Take `C=CCc1ccc(OC(=O)CCC)c(OC)c1`: the values for the selectivity ratio in data set [1] and in data set [6] were 2.71 and 3.61, respectively. Also, the values for the concentration giving a half-maximal response (EC50) in data set [2] and in data set [4] were 191 µM and 72.1 µM, respectively. In addition, the IC50 was found to be 64.5 µM in data set [3] and 233 µM in data set [7]. The figures for the Activity result in data set [5] and in data set [5] (record 2) were “Dose-dependent effect” and 23.08 µM, respectively.
Regarding `C=CCc1ccc(OC(=O)C2CCNCC2)c(OC)c1`, the figures for the selectivity ratio in data set [1] and in data set [6] were 4.66 and 2.96, respectively. Also, the EC50 in data set [2] is 307 µM; in data set [4], 66.3 µM. For the same compound, the IC50 in data set [3] came to 89 µM; in data set [7], 261 µM. In addition, the figures for the Activity result in data set [5] and in data set [5] (record 2) were “Dose-dependent effect” and 21.55 µM, respectively.
With `C=CCc1ccc(OCCCCCCCC)c(OC)c1`, the selectivity ratio in data set [1] worked out at 8.3; in data set [6] it was 5.85. Also, the EC50 in data set [2] turned out to be 393 µM; in data set [4], 48.7 µM. Besides, the IC50 is 62.3 µM in data set [3] and 357 µM in data set [7]. Besides, the values for the Activity entry in data set [5] and in data set [5] (record 2) were “Dose-dependent effect” and 26.01 µM, respectively.
Take `C=CCc1ccc(OC(=O)[C@@H]2CCCN2)c(OC)c1`: the selectivity ratio is 4.49 in data set [1] and 2.87 in data set [6]. For the same compound, the EC50 amounted to 326 µM in data set [2] and 72.9 µM in data set [4]. Moreover, the half-inhibitory concentration (IC50) in data set [3] turned out to be 97.4 µM; in data set [7] it was 278 µM. The Activity entry in data set [5] was “Dose-dependent effect”; in data set [5] (record 2), 21.87 µM.
For the compound `C=CCc1ccc(OCCCCCCCCCCCC)c(OC)c1`, the selectivity ratio in data set [1] turned out to be 11.4; in data set [6] it was 5.76. For the same compound, the EC50 came out at 292 µM in data set [2] and 26 µM in data set [4]. In addition, the values for the IC50 in data set [3] and in data set [7] were 52.5 µM and 299 µM, respectively. Also, the Activity result in data set [5] is “Dose-dependent effect”; in data set [5] (record 2), 28.12 µM.
Consider `C=CCc1ccc(OCCCCCC)c(OC)c1`, for which the selectivity ratio in data set [1] amounted to 7.6; in data set [6], 3.63. For the same compound, the EC50 in data set [2] is 272 µM; in data set [4] it was 36.4 µM. The IC50 in data set [3] was determined as 80.3 µM; in data set [7], 292 µM. Further, the Activity entry in data set [5] is “Dose-dependent effect”; in data set [5] (record 2), 20.81 µM.
`C=CCc1ccc(OCCCCC)c(OC)c1`: the selectivity ratio amounted to 1.97 in data set [1] and 1.96 in data set [6]. The EC50 in data set [2] stood at 164 µM; in data set [4] it was 83.4 µM. Moreover, the IC50 was 90.8 µM in data set [3] and 178 µM in data set [7]. The Activity entry in data set [5] was “Dose-dependent effect”; in data set [5] (record 2) it was 12.95 µM.
Turning to `C=CCc1ccc(OC(=O)c2cccc([N+](=O)[O-])c2)c(OC)c1`, the figures for the selectivity ratio in data set [1] and in data set [6] were 8.36 and 3.33, respectively. In addition, the EC50 turned out to be 218 µM in data set [2] and 26.2 µM in data set [4]. The IC50 in data set [3] is 76.9 µM; in data set [7], 255 µM. Also, the Activity result is “Dose-dependent effect” in data set [5] and 24.58 µM in data set [5] (record 2).
Turning to `C=CCc1ccc(OC(=O)[C@@H](N)Cc2c[nH]c3ccccc23)c(OC)c1`, the selectivity ratio in data set [1] worked out at 22.1; in data set [6], 8.6. The EC50 in data set [2] was determined as 471 µM; in data set [4] it was 21.6 µM. For the same compound, the IC50 in data set [3] is 53 µM; in data set [7] it was 451 µM. In addition, the Activity entry was “Dose-dependent effect” in data set [5] and 28.78 µM in data set [5] (record 2).
Take `C=CCc1ccc(OC(=O)c2ccc([N+](=O)[O-])cc2)c(OC)c1`: the selectivity ratio in data set [1] was determined as 9.21; in data set [6], 3.18. For the same compound, the EC50 came to 244 µM in data set [2] and 26.7 µM in data set [4]. Also, the IC50 in data set [3] amounted to 82.4 µM; in data set [7], 261 µM. The figures for the Activity entry in data set [5] and in data set [5] (record 2) were “Dose-dependent effect” and 27.28 µM, respectively.

(Values after ChEMBL document CHEMBL4130392, “Eugenol derived immunomodulatory molecules against visceral leishmaniasis” (Eur J Med Chem, 2017).)
